“Also recorded” adds a separate entry of the source.
System: healthy male volunteers
Assay: Human Study 1: treatment-emergent adverse events (TEAE), safety, Modified OAA/S
Assay type: in vivo
Protocol: In human study 1, fospropofol disodium was formulated as a sterile aqueous solution at a concentration of 20 mg/mL. Each vial provided contained 20 mL of solution, suitable for intravenous injection. Fospropofol was administered as a single dose of 400 mg orally, directly into the duodenum by gastroscopy or intravenously over 10 min. In human study 2, fospropofol disodium in capsules (200 mg) or matching placebo was administered orally.
The first study was an absolute bioavailability study of fospropofol conducted at a single center (PRA Health Sciences) in Groningen, Netherlands, as a three-way crossover study. The study enrolled 7 healthy male volunteers between 18 and 45 years of age inclusive, with a body mass index between 18 and 28 kg/m^2. Subjects stayed in the clinical unit for three consecutive periods of 3 days each, with a 3-day washout, between periods. For six subjects, the order of the administration routes was as follows—period 1: PO, period 2: ID, and period 3: IV. For one subject the order of the administration routes was the following—period 1: ID, period 2: IV and period 3: PO. In this study a single dose of 400 mg was administered by each route. Blinding and placebo control was impractical due to the requirement of unsedated endoscopic administration of fospropofol into the duodenum. Safety and overall pharmacodynamic effect was evaluated based on adverse events, vital signs, electrocardiogram (ECG), Modified Observer's Assessment of Alertness/Sedation (OAA/S) score, clinical laboratory tests, and physical examination.

CC(C)c1cccc(C(C)C)c1OCOP(=O)(O)O [fospropofol]
TEAE NERVOUS SYSTEM DISORDERS, events (E) (400 mg PO): 6 | TEAE NERVOUS SYSTEM DISORDERS, subjects (%) (400 mg PO): 57% | TEAE PSYCHIATRIC DISORDERS, events (E) (400 mg PO): 1 | TEAE PSYCHIATRIC DISORDERS, subjects (%) (400 mg PO): 14% | TEAE TOTAL, events (E) (400 mg PO): 8 | TEAE TOTAL, subjects (%) (400 mg PO): 86% | TEAE dizziness, events (E) (400 mg PO): 1 | TEAE dizziness, subjects (%) (400 mg PO): 14% | TEAE euphoric mood, events (E) (400 mg PO): 1 | TEAE euphoric mood, subjects (%) (400 mg PO): 14% | TEAE nausea, events (E) (400 mg PO): 1 | TEAE nausea, subjects (%) (400 mg PO): 14% | TEAE paresthesia, events (E) (400 mg PO): 1 | TEAE paresthesia, subjects (%) (400 mg PO): 14% | TEAE somnolence, events (E) (400 mg PO): 4 | TEAE somnolence, subjects (%) (400 mg PO): 57% | time to resolution of euphoria (400 mg PO, one subject): 17 min | Modified OAA/S score, all subjects at all times (400 mg oral): 5 | TEAE BLOOD AND LYMPHATIC SYSTEM DISORDERS, events (E) (400 mg, Total (PO+ID+IV)): 1 | TEAE BLOOD AND LYMPHATIC SYSTEM DISORDERS, subjects (%) (400 mg, Total (PO+ID+IV)): 14% | TEAE EYE DISORDERS, events (E) (400 mg, Total (PO+ID+IV)): 5 | TEAE EYE DISORDERS, subjects (%) (400 mg, Total (PO+ID+IV)): 71% | TEAE GASTROINTESTINAL DISORDERS, events (E) (400 mg, Total (PO+ID+IV)): 6 | TEAE GASTROINTESTINAL DISORDERS, subjects (%) (400 mg, Total (PO+ID+IV)): 57% | TEAE GENERAL DISORDERS AND ADMINISTRATION SITE CONDITIONS, events (E) (400 mg, Total (PO+ID+IV)): 12 | TEAE GENERAL DISORDERS AND ADMINISTRATION SITE CONDITIONS, subjects (%) (400 mg, Total (PO+ID+IV)): 71% | TEAE INFECTIONS AND INFESTATIONS, events (E) (400 mg, Total (PO+ID+IV)): 1 | TEAE INFECTIONS AND INFESTATIONS, subjects (%) (400 mg, Total (PO+ID+IV)): 14% | TEAE MUSCULOSKELETAL AND CONNECTIVE TISSUE DISORDERS, events (E) (400 mg, Total (PO+ID+IV)): 2 | TEAE MUSCULOSKELETAL AND CONNECTIVE TISSUE DISORDERS, subjects (%) (400 mg, Total (PO+ID+IV)): 29% | TEAE NERVOUS SYSTEM DISORDERS, events (E) (400 mg, Total (PO+ID+IV)): 40 | TEAE NERVOUS SYSTEM DISORDERS, subjects (%) (400 mg, Total (PO+ID+IV)): 100% | TEAE PSYCHIATRIC DISORDERS, events (E) (400 mg, Total (PO+ID+IV)): 3 | TEAE PSYCHIATRIC DISORDERS, subjects (%) (400 mg, Total (PO+ID+IV)): 43% | TEAE REPRODUCTVE SYSTEM AND BREAST DISORDERS, events (E) (400 mg, Total (PO+ID+IV)): 1 | TEAE REPRODUCTVE SYSTEM AND BREAST DISORDERS, subjects (%) (400 mg, Total (PO+ID+IV)): 14% | TEAE SKIN AND SUBCUTANEOUS TISSUE DISORDERS, events (E) (400 mg, Total (PO+ID+IV)): 2 | TEAE SKIN AND SUBCUTANEOUS TISSUE DISORDERS, subjects (%) (400 mg, Total (PO+ID+IV)): 29% | TEAE TOTAL, subjects (%) (400 mg, Total (PO+ID+IV)): 100% | TEAE burning sensation, events (E) (400 mg, Total (PO+ID+IV)): 6 | TEAE burning sensation, subjects (%) (400 mg, Total (PO+ID+IV)): 43% | TEAE catheter site pain, events (E) (400 mg, Total (PO+ID+IV)): 1 | TEAE catheter site pain, subjects (%) (400 mg, Total (PO+ID+IV)): 14% | TEAE diplopia, events (E) (400 mg, Total (PO+ID+IV)): 1 | TEAE diplopia, subjects (%) (400 mg, Total (PO+ID+IV)): 14% | TEAE disorientation, events (E) (400 mg, Total (PO+ID+IV)): 1 | TEAE disorientation, subjects (%) (400 mg, Total (PO+ID+IV)): 14% | TEAE dizziness postural, events (E) (400 mg, Total (PO+ID+IV)): 1 | TEAE dizziness postural, subjects (%) (400 mg, Total (PO+ID+IV)): 14% | TEAE dizziness, events (E) (400 mg, Total (PO+ID+IV)): 5 | TEAE dizziness, subjects (%) (400 mg, Total (PO+ID+IV)): 43% | TEAE dry mouth, events (E) (400 mg, Total (PO+ID+IV)): 1 | TEAE dry mouth, subjects (%) (400 mg, Total (PO+ID+IV)): 14% | TEAE dyspepsia, events (E) (400 mg, Total (PO+ID+IV)): 1 | TEAE dyspepsia, subjects (%) (400 mg, Total (PO+ID+IV)): 14% | TEAE ecchymosis, events (E) (400 mg, Total (PO+ID+IV)): 1 | TEAE ecchymosis, subjects (%) (400 mg, Total (PO+ID+IV)): 14% | TEAE euphoric mood, events (E) (400 mg, Total (PO+ID+IV)): 2 | TEAE euphoric mood, subjects (%) (400 mg, Total (PO+ID+IV)): 29% | TEAE fatigue, events (E) (400 mg, Total (PO+ID+IV)): 4 | TEAE fatigue, subjects (%) (400 mg, Total (PO+ID+IV)): 43% | TEAE feeling abnormal, events (E) (400 mg, Total (PO+ID+IV)): 1 | TEAE feeling abnormal, subjects (%) (400 mg, Total (PO+ID+IV)): 14% | TEAE feeling cold, events (E) (400 mg, Total (PO+ID+IV)): 1 | TEAE feeling cold, subjects (%) (400 mg, Total (PO+ID+IV)): 14% | TEAE feeling drunk, events (E) (400 mg, Total (PO+ID+IV)): 1 | TEAE feeling drunk, subjects (%) (400 mg, Total (PO+ID+IV)): 14% | TEAE flatulence, events (E) (400 mg, Total (PO+ID+IV)): 1 | TEAE flatulence, subjects (%) (400 mg, Total (PO+ID+IV)): 14% | TEAE genital pruritis male, events (E) (400 mg, Total (PO+ID+IV)): 1 | TEAE genital pruritis male, subjects (%) (400 mg, Total (PO+ID+IV)): 14% | TEAE herpes simplex, events (E) (400 mg, Total (PO+ID+IV)): 1 | TEAE herpes simplex, subjects (%) (400 mg, Total (PO+ID+IV)): 14% | TEAE lymph node pain, events (E) (400 mg, Total (PO+ID+IV)): 1 | TEAE lymph node pain, subjects (%) (400 mg, Total (PO+ID+IV)): 14% | TEAE muscle fatigue, events (E) (400 mg, Total (PO+ID+IV)): 2 | TEAE muscle fatigue, subjects (%) (400 mg, Total (PO+ID+IV)): 29% | TEAE nausea, events (E) (400 mg, Total (PO+ID+IV)): 2 | TEAE nausea, subjects (%) (400 mg, Total (PO+ID+IV)): 14% | TEAE paresthesia, events (E) (400 mg, Total (PO+ID+IV)): 10 | TEAE paresthesia, subjects (%) (400 mg, Total (PO+ID+IV)): 86% | TEAE proctalgia, events (E) (400 mg, Total (PO+ID+IV)): 1 | TEAE proctalgia, subjects (%) (400 mg, Total (PO+ID+IV)): 14% | TEAE rash, events (E) (400 mg, Total (PO+ID+IV)): 1 | TEAE rash, subjects (%) (400 mg, Total (PO+ID+IV)): 14% | TEAE sluggishness, events (E) (400 mg, Total (PO+ID+IV)): 3 | TEAE sluggishness, subjects (%) (400 mg, Total (PO+ID+IV)): 43% | TEAE somnolence, events (E) (400 mg, Total (PO+ID+IV)): 11 | TEAE somnolence, subjects (%) (400 mg, Total (PO+ID+IV)): 100% | TEAE speech disorder, events (E) (400 mg, Total (PO+ID+IV)): 6 | TEAE speech disorder, subjects (%) (400 mg, Total (PO+ID+IV)): 86% | TEAE subrapubic pain, events (E) (400 mg, Total (PO+ID+IV)): 1 | TEAE subrapubic pain, subjects (%) (400 mg, Total (PO+ID+IV)): 14% | TEAE tremor, events (E) (400 mg, Total (PO+ID+IV)): 1 | TEAE tremor, subjects (%) (400 mg, Total (PO+ID+IV)): 14% | TEAE visual disturbance, events (E) (400 mg, Total (PO+ID+IV)): 4 | TEAE visual disturbance, subjects (%) (400 mg, Total (PO+ID+IV)): 57% | TEAEs considered possibly or probably related to study drug (400 mg, all routes): Seventy | clinical laboratory results, vital signs, ECG, physical examination (400 mg, all routes): No clinically-relevant abnormalities | lowest observed Modified OAA/S score (400 mg, all routes): 4 | serious adverse events (400 mg, all routes): No subject experienced a serious adverse event; also recorded: No severe or serious TEAEs | severity of TEAEs (400 mg, all routes): mild | time to resolution of TEAEs (all but one) (400 mg, all routes, after dosing): ≤ 1 h | time by which all subjects had Modified OAA/S scores of 5 (400 mg, all routes, postdose): ≤ 1.5 h
